Patent publication US7902195B2, “Pyridine [3,4-b] pyrazinones” (Pharmacia & Upjohn Company LLC, priority 2006, dated 2011)

molecular target: T1, PDE5 enzyme isolated from human platelets (Homo sapiens, UniProt O76074); test: Alternative human platelet PDE5 enzyme inhibition scintillation proximity assay (Method 2); type: biochemical; conditions: cGMP substrate 50 nM, 60 minutes at room temperature
T1 construct: The PDE5 enzyme for use in the assay can be obtained from human platelets; from tissue; host or cells: human platelets
Text: The IC50 of a test compound can be measured using an in vitro assay using PDE5 enzyme isolated from human platelets. The IC50 is the concentration of test compound required to inhibit the hydrolysis of cGMP to GMP by the PDE5 enzyme by 50% relative to the activity of uninhibited controls. The PDE5 enzyme for use in the assay can be obtained from human platelets by appropriate modification of the method of Thompson, W J et al.; Biochemistry 18(23), 5228-5237, 1979, as described by Ballard S A et al.; J. Urology 159(6), 2164-2171, 1998. The PDE5 enzyme so obtained can be used to catalyze the hydrolysis of [^3H]cGMP (Amersham Biosciences) to 5′ nucleotide [^3H]GMP. The [^3H]GMP binds to yttrium silicate SPA beads (Amersham Biosciences) and is detected by scintillation counting. More specifically, the effect of a test compound at different concentrations can be evaluated in the assay by contacting the compound with a fixed amount of PDE5 enzyme in the presence of substrate (cGMP […] in a 3:1 ratio unlabelled to [^3H]-labeled). Scintillation counting can be used as described above to determine relative PDE5 enzyme activity. The inhibition of PDE5 enzyme activity is then calculated relative to total PDE5 enzyme activity of uninhibited controls.
Method 2: Alternative Human Platelet PDE5 Enzyme Inhibition Scintillation Proximity Assay
PDE5 IC50 Assay: 96-Well Microtiter Plate Format
Buffer A: 20 mM Tris-HCl, 5 mM MgCl2, pH 7.4
Buffer B: 2 mg/ml BSA in Buffer A (enzyme buffer)
cGMP substrate: Final concentration of 50 nM in assay
The amount of ^3H-labeled substrate added depends upon the specific activity of [^3H]cGMP, and it is diluted in Buffer A.
PDE enzyme: Prepared in Buffer B. The dilution factor is determined by enzyme activity.
SPA beads: 4 mg/ml suspension prepared in dH2O.
Stocks of standard and test compound are prepared at 2 mM in 100% DMSO. The test compound is serially diluted in a dilution plate using an 8-point ⅕ log dilution format such that the starting concentration in the assay is 2 μM for an initial IC50 screen. 27 μl of Buffer A are added to the wells of the assay plates. From the dilution plate, 3 μl of diluted compound is delivered in duplicate or 3 μl of 100% DMSO (for positive and negative controls) are added. 30 μl of enzyme are added. For the negative control wells, Buffer B is substituted in place of the enzyme. 30 μl of labeled substrate are added to all wells.
After incubating for 60 minutes at room temperature, the reaction is stopped with the addition of 30 μl of the yttrium silicate beads. These beads are dense and require constant agitation while being added to the plate. The plates are sealed and shaken on a plate shaker for fifteen minutes to allow the beads to bind the GMP product.
After allowing the beads to settle for 30 minutes, plates are read on a NXT TopCount scintillation counter and the data are analyzed as follows. Percent inhibition values are calculated using the means of the 0% and 100% controls on each plate. The estimates of the 4-parameters of the logistic, sigmoid dose-response model are then calculated using the well-level percent inhibition value for the compound. The formula for the four-parameter logistic model may be expressed as Y=((a−d)/(1+(X/c)^b))+d, where Y is the response, X is the concentration, a is the lower asymptote (minimum response), d is the upper asymptote (maximum response), c is the model IC50 (in the same units as X), and b is the slope (as described in De Lean, A., P. J. Munson, and D. Rodbard (“Simultaneous analysis of families of sigmoidal curves: application to bioassay, radioligand assay, and physiological dose-response curves.” Am. J. Physiol. 235(2): E97-E102, 1978). These estimates are used to calculate the concentration that corresponds to 50% inhibition.
Compounds were tested in accordance with Method 2 above yielding the IC50 values described in Table C.

Row | Structure (SMILES) | IC50 [nM]
1 | CCCOCCn1c(=O)c(N2CCN(CC(C)(C)O)CC2)nc2cnc(-c3ccc(OC)nc3)cc21 [Example 43, 3-(4-(2-hydroxy-2-methylpropyl)piperazin-1-yl)-7-(6-methoxypyridin-3-yl)-1-(2-propoxyethyl)pyrido[3,4-b]pyrazin-2(1H)-one] | 0.208
2 | CCCOCCn1c(=O)c(N2CCN(CCO)CC2)nc2cnc(-c3ccc(OC)c(F)c3)cc21 [Example 33, 7-(3-fluoro-4-methoxyphenyl)-3-(4-(2-hydroxyethyl)piperazin-1-yl)-1-(2-propoxyethyl)pyrido[3,4-b]pyrazin-2(1H)-one] | 13.6
3 | CCCOCCn1c(=O)c(N2CCN(CCO)CC2)nc2cnc(-c3ccc(CO)cc3)cc21 [Example 23, 3-(4-(2-hydroxyethyl)piperazin-1-yl)-7-(4-(hydroxymethyl)phenyl)-1-(2-propoxyethyl)pyrido[3,4-b]pyrazin-2(1H)-one] | 1790
4 | CCCOCCn1c(=O)c(N2CCCN(CCO)CC2)nc2cnc(-c3ccc(OC)nc3)cc21 [Example 12, 3-[4-(2-hydroxyethyl)-1,4-diazepan-1-yl]-7-(6-methoxypyridin-3-yl)-1-(2-propoxyethyl)pyrido[3,4-b]pyrazin-2(1H)-one] | 0.721
5 | CCCOCCn1c(=O)c(N2CCCN(CCCO)CC2)nc2cnc(-c3ccc(OC)nc3)cc21 [Example 48, 3-(4-(3-hydroxypropyl)-1,4-diazepan-1-yl)-7-(6-methoxypyridin-3-yl)-1-(2-propoxyethyl)pyrido[3,4-b]pyrazin-2(1H)-one] | 1.07
6 | CCCOCCn1c(=O)c(N2CCN(CCO)CC2)nc2cnc(-c3ccc(F)c(C)c3)cc21 [Example 25, 7-(4-fluoro-3-methylphenyl)-3-(4-(2-hydroxyethyl)piperazin-1-yl)-1-(2-propoxyethyl)pyrido[3,4-b]pyrazin-2(1H)-one] | 1.87
7 | CCCOCCn1c(=O)c(N2C[C@H]3C[C@@H]2CN3)nc2cnc(-c3ccc(OC)nc3)cc21 [Example 2, 3-[(1R,4R)-2,5-diazabicyclo[2.2.1]hept-2-yl]-7-(6-methoxypyridin-3-yl)-1-(2-propoxyethyl)pyrido[3,4-b]pyrazin-2(1H)-one] | 2.38
8 | CCCOCCn1c(=O)c(N2CCN(CC)CC2)nc2cnc(-c3ccc(OC)nc3)cc21 [Example 39, 3-(4-ethylpiperazin-1-yl)-7-(6-methoxypyridin-3-yl)-1-(2-propoxyethyl)pyrido[3,4-b]pyrazin-2(1H)-one] | 0.217
9 | CCCOCCn1c(=O)c(N2CCN(CCO)CC2)nc2cnc(-c3ccc(C(C)=O)s3)cc21 [Example 28, 7-(5-acetylthiophen-2-yl)-3-(4-(2-hydroxyethyl)piperazin-1-yl)-1-(2-propoxyethyl)pyrido[3,4-b]pyrazin-2(1H)-one] | 43.1
10 | CCCOCCn1c(=O)c(N2CCN(CCO)CC2)nc2cnc(-c3ccc(OC(C)C)cc3)cc21 [Example 21, 3-(4-(2-hydroxyethyl)piperazin-1-yl)-7-(4-isopropoxyphenyl)-1-(2-propoxyethyl)pyrido[3,4-b]pyrazin-2(1H)-one] | 413
11 | CCCOCCn1c(=O)c(N2CCN(CCO)CC2)nc2cnc(-c3ccc(F)cc3F)cc21 [Example 18, 7-(2,4-difluorophenyl)-3-(4-(2-hydroxyethyl)piperazin-1-yl)-1-(2-propoxyethyl)pyrido[3,4-b]pyrazin-2(1H)-one] | 29.9
12 | CCCOCCn1c(=O)c(N2CCN(CCO)CC2)nc2cnc(-c3ccc(OC)nc3)cc21 [Example 5, 3-[4-(2-hydroxyethyl)piperazin-1-yl]-7-(6-methoxypyridin-3-yl)-1-(2-propoxyethyl)pyrido[3,4-b]pyrazin-2(1H)-one] | 0.203
13 | CCCOCCn1c(=O)c(N2CCN(CCO)CC2)nc2cnc(-c3ccccc3O)cc21 [Example 37, 3-(4-(2-hydroxyethyl)piperazin-1-yl)-7-(2-hydroxyphenyl)-1-(2-propoxyethyl)pyrido[3,4-b]pyrazin-2(1H)-one] | 18.1
14 | CCCOCCn1c(=O)c(N2CCN(CCO)CC2)nc2cnc(-c3ccc(O)cc3)cc21 [Example 14, 3-(4-(2-hydroxyethyl)piperazin-1-yl)-7-(4-hydroxyphenyl)-1-(2-propoxyethyl)pyrido[3,4-b]pyrazin-2(1H)-one] | 832
15 | CCCOCCn1c(=O)c(N2CCN(CCO)CC2)nc2cnc(-c3ccc(C)cc3)cc21 [Example 27, 3-(4-(2-hydroxyethyl)piperazin-1-yl)-1-(2-propoxyethyl)-7-p-tolylpyrido[3,4-b]pyrazin-2(1H)-one] | 9.31
16 | CCCOCCn1c(=O)c(N2CCN(CC(=O)O)CC2)nc2cnc(-c3ccc(OC)nc3)cc21 [Example 8, {4-[7-(6-methoxypyridin-3-yl)-2-oxo-1-(2-propoxyethyl)-1,2-dihydropyrido[3,4-b]pyrazin-3-yl]piperazin-1-yl}acetic acid] | 0.517
17 | CCCOCCn1c(=O)c(N2CCN(CCO)CC2)nc2cnc(-c3cccc(OC)c3F)cc21 [Example 20, 7-(2-fluoro-3-methoxyphenyl)-3-(4-(2-hydroxyethyl)piperazin-1-yl)-1-(2-propoxyethyl)pyrido[3,4-b]pyrazin-2(1H)-one] | 1.59
18 | CCCOCCn1c(=O)c(N2CCN(CCO)CC2)nc2cnc(-c3cccc(OC)c3)cc21 [Example 29, 3-(4-(2-hydroxyethyl)piperazin-1-yl)-7-(3-methoxyphenyl)-1-(2-propoxyethyl)pyrido[3,4-b]pyrazin-2(1H)-one] | 3.07
19 | CCCOCCn1c(=O)c(N2CCN(CCO)CC2)nc2cnc(-c3cccc(OCC)c3)cc21 [Example 32, 7-(3-ethoxyphenyl)-3-(4-(2-hydroxyethyl)piperazin-1-yl)-1-(2-propoxyethyl)pyrido[3,4-b]pyrazin-2(1H)-one] | 158
20 | CCCOCCn1c(=O)c(N2CCN(CCO)CC2)nc2cnc(-c3ccc(OC)cc3)cc21 [Example 17, 3-(4-(2-hydroxyethyl)piperazin-1-yl)-7-(4-methoxyphenyl)-1-(2-propoxyethyl)pyrido[3,4-b]pyrazin-2(1H)-one] | 7.71
21 | CCCOCCn1c(=O)c(N2CCN([C@H](C)[C@@H](C)O)CC2)nc2cnc(-c3ccc(OC)nc3)cc21 [Example 45, 3-(4-((2R,3R)-3-hydroxybutan-2-yl)piperazin-1-yl)-7-(6-methoxypyridin-3-yl)-1-(2-propoxyethyl)pyrido[3,4-b]pyrazin-2(1H)-one] | 0.295
22 | CCCOCCn1c(=O)c(N2CCN(CCO)CC2)nc2cnc(-c3cccc(Cl)c3)cc21 [Example 16, 7-(3-chlorophenyl)-3-(4-(2-hydroxyethyl)piperazin-1-yl)-1-(2-propoxyethyl)pyrido[3,4-b]pyrazin-2(1H)-one] | 3.34
23 | CCCOCCn1c(=O)c(N2CCN(CCO)CC2)nc2cnc(-c3ccc(Cl)cc3)cc21 [Example 13, 7-(4-chlorophenyl)-3-(4-(2-hydroxyethyl)piperazin-1-yl)-1-(2-propoxyethyl)pyrido[3,4-b]pyrazin-2(1H)-one] | 1.35
